Positions of bridges follow the written chain, without caps; N, C: chain ends.

This is an account of results in patent publication US20160058829A1, “ANTI-FIBROTIC PEPTIDES AND THEIR USE IN METHODS FOR TREATING DISEASES AND DISORDERS CHARACTERIZED BY FIBROSIS” (Thrasos Innovation, Inc., priority 2011, published 2016).

Experiment [1] concerns mice with nephrotoxic serum nephritis. The experiment can be described thus: Nephrotoxic serum nephritis (NTN) in CD1 mice. The class given is in vivo. An excerpt:
FIG. 59A-FIG. 59M AA-123 Reverses Renal Fibrosis in Mice with Nephrotoxic Serum Nephritis. FIG. 59A-FIG. 59D. Representative Masson's trichrome staining picture of kidney sections from untreated control mice (FIG. 59A); 6 weeks NTN (FIG. 59B); 9 weeks post NTN (FIG. 59C); and 9 weeks NTN with THR-123 administered starting at 6 weeks NTN (FIG. 59D), Original magnification ×200. FIG. 59E-FIG. 59G. Morphometric analysis from control mice (0 weeks) (n=5), mice after 1 (n=6), 3 (n=8), and 6 weeks following induction of NTN (n=6), and mice at 9 weeks NTN with THR-123 administered starting 6 weeks NTN (THR-123 (6-9W) (n=6)), assessing percent of glomerulosclerosis score (FIG. 59E), tubular atrophy index (FIG. 59F), and fibrosis index (FIG. 59G). FIG. 59H. Blood Urea Nitrogen measurement for mice 6 weeks NTN (n=3), 9 weeks NTN (n=5), and 9 weeks NTN with THR-123 administered starting at 6 weeks NTN (n=5) FIG. 59I-FIG. 59L. E-cadherin/FSP1 immunolabeling of kidney from control untreated mice (FIG. 59I), 6 weeks NTN (FIG. 59J), 9 weeks NTN (FIG. 59K), and 9 weeks NTN with THR-123 administered starting at 6 weeks NTN (FIG. 59L). Representative results are shown. FIG. 59M. Percent of E-cadherin/FSP1 double positive tubule was assessed by counting the number of double-labeled tubules, 500 tubules per slide, 5 slides per experimental group. Data are expressed as mean±s.e.m. in the graph.
NTN is induced in C57BL6 mice by pre-immunizing with a subcutaneous injection of normal sheep IgG (200 μg) in complete Freund's adjuvant (day 1) followed by intravenous injection of nephrotoxic serum injection (50 μl, from day 5 to day 7). Mice were sacrificed at 1, 3, 6, 9 weeks after induction of NTN. Total RNA was isolated from the kidney by Trizol/Invitrogen PureLink RNA Mini Kit for RNA extraction. Ten nanogram of total RNA was used for generating complementary cDNA using the TaqMan One-Step RT-PCR Master Mix (Applied Biosystems, Foster City, Calif.). Quantitative PCR was performed to analyze the gene expression profile of BMP7, BMP receptors Alk2, Alk-3, Alk6 and BMPR II, and to BMP-binding proteins chordin, criml, fibrillinl, follistatin, KCP, USAG1, gremlin and noggin are analyzed (Table: Primer Sequences (below)) using ABIprism 7000 (Applied Biosystems).
NTN is induced in CD1 mice by the method described above. Six weeks after NTN induction, THR-123 (p.o. 5 mg/Kg/day) are started until 9 weeks. Mice are sacrificed at week 1, week 3, week 6 and week 9.
For the analysis of glomerulosclerosis, 20 glomeruli per each mouse were randomly picked and each glomerulus was evaluated according to the following scale: no sclerosis 0, 0 to ¼ of a glomerular surface area was sclerosed 1, ¼ to ½ was sclerosed 2, ½ to ¾ was sclerosed 3 and more than ¾ was sclerosed or with crescent 4. A glomerulosclerosis score was calculated as an arithmetic mean of these numbers for each mouse. The glomerulosclerosis scores from all mice were arbitrarily divided into 4 groups; that is no disease, mild, moderate and severe. The percentage of mice with these 4 groups was calculated.
For tubular atrophy score, ten 200× visual fields were randomly selected for each slide and tubular atrophy was assessed according to the following scale: no atrophy 0, 0 to ¼ of a visual field was occupied by atrophied tubules 1, ¼ to ½ 2, ½ to ¾ 3 and more than ¾ 4. A tubular atrophy score was then calculated as an arithmetic mean of these numbers per each mouse. The tubular atrophy scores from all mice were arbitrarily divided into 4 groups; that is no disease, mild, moderate and severe. The percentage of mice with these 4 groups was calculated and shown on the graph.
For the analysis of interstitial fibrosis, ten 200× visual fields were also selected randomly for each Masson trichrome stained kidney section and interstitial fibrosis was evaluated according to the following scale: no fibrosis 0, 0 to ¼ of a visual field was affected by interstitial fibrosis 1, ¼ to ½ 2, ½ to ¾ 3 and more than ¾ 4. […]

The test system of experiment [2] is COL4A3−/− mice. The experiment can be described thus: COL4A3 deficient mice (Alport syndrome model). The class given is in vivo. An excerpt:
FIG. 64a-FIG. 64N […] inhibits Renal Fibrosis in the COL4A3 Deficient mice. FIG. 64A-FIG. 64C. Representative histological PAS staining of glomeruli from 16 weeks old wild type (FIG. 64A); 16 weeks old COL4A3−/− (FIG. 64B), and 16 weeks old COL4A3−/− mice treated with THR-123 (FIG. 64C), original magnification ×400. D-F. Representative histological Masson's trichrome staining of kidneys from 16 weeks old wild type (FIG. 64D); 16 weeks old COL4A3−/− (FIG. 64E), and 16 weeks old COL4A3−/− mice treated with THR-123 (FIG. 64F), original magnification ×100. FIG. 64G-FIG. 64I. Morphometric analyses from 16 weeks old wild type (n=5), COL4A3−/− (n=5) and COL4A3−/− mice treated with THR-123 (n=5) assessing percent normal glomeruli (FIG. 64G), tubular damage index (FIG. 64H), relative interstitial volume (FIG. 64I). FIG. 64J. Blood urea nitrogen measurement for […] wild type (n=5), 16 weeks old COL4A3−/− (n=5) and COL4A3−/− mice treated with THR-123 (n=5). FIG. 64K-FIG. 64M. FSP1/E-cadherin immunolabeling of kidney. Representative results are shown. FIG. 64N. Percent of E-cadherin/FSP1double positive tubule, 500 tubules per slide, 5 slides per experimental group.
Eight weeks old COL4A3^−/− mice are treated either THR-123 (p.o. 5 mg/Kg/day) or vehicle. COL4A3^−/− mice are sacrificed at 16 weeks of age.
For morphometric analyses of percent normal glomeruli, 100 glomeruli were counted per slide from random fields of view, and five slides were counted per experimental group. The number of normal glomeruli was expressed as a percentage of the total number of glomeruli counted.

With “(H)-CYFDDSSNVLCKKYRS-(OH) (H-CYFDDSSNVLCKKYRS-OH; disulfide 1-11; SMILES CC(C)C[C@@H]1NC(=O)[C@H](C(C)C)NC(=O)[C@H](CC(N)=O)NC(=O)[C@H](CO)NC(=O)[C@H](CO)NC(=O)[C@H](CC(=O)O)NC(=O)[C@H](CC(=O)O)NC(=O)[C@H](Cc2ccccc2)NC(=O)[C@H](Cc2ccc(O)cc2)NC(=O)[C@@H](N)CSSC[C@@H](C(=O)N[C@@H](CCCCN)C(=O)N[C@@H](CCCCN)C(=O)N[C@@H](Cc2ccc(O)cc2)C(=O)N[C@@H](CCCNC(=N)N)C(=O)N[C@@H](CO)C(=O)O)NC1=O) [SEQ ID NO: 1]”, the “glomerular lesion (sclerosis), tubular atrophy and fibrosis” value in experiment [1] (THR-123 p.o. 5 mg/Kg/day from week 6 to 9) was “improved glomerular lesion (sclerosis) and tubular atrophy and fibrosis”. In experiment [1] (week 6 to 9 treatment), the “Mac-1 positive macrophage accumulation” value is “inhibited accumulation of macrophage”; the blood urea nitrogen entry is listed as “decreased”; the “cells exhibiting an EMT program (FSP-1 and E-cadherin positive)” value is reported as “significantly decreased the number of cells exhibiting an EMT program”; the “expression of fibronectin and type I collagen” value was “decreased expression of matrix components such as fibronectin and type I collagen”. In experiment [1] (week 6 to 9 treatment), the phospho-smad1/5 accumulation entry was “increased accumulation of phospho-Smad1/5”. In experiment [2] (THR-123 p.o. 5 mg/Kg/day), the “blood urea nitrogen level” value is “significantly improved blood urea nitrogen level”; the “tubular atrophy and interstitial fibrosis” value is “significantly inhibited tubular atrophy and interstitial fibrosis”. Moreover, the glomerular abnormalities entry in experiment [2] (THR-123 p.o. 5 mg/Kg/day, 8 to 16 weeks of age) was “did not alter glomerular abnormalities”. In experiment [2] (mouse, in vivo), the “acquisition of an EMT program” value is “inhibited such acquisition of an EMT program”, the macrophage infiltration entry is recorded as “inhibited macrophage infiltration” and the phospho-smad1/5 accumulation entry was “increased accumulation of phospho-smad1/5”.
